Experimental data published in patent US9714244B2, “Substituted pyrido[4,3-d]pyrimidines as Wee-1 inhibitors” (ALMAC DISCOVERY LIMITED, priority 2013, dated 2017).
Structures can show the parent of a compound that is named as a salt.

Key:
[1] = Rat hepatocyte assay CLint; format: in vitro ADME; conditions: hepatocytes
Procedure: (§1) Compounds of the present invention have good stability in human and/or rat hepatocyte incubations. In particular, representative examples 7, 8, 13, 18, 20 have CLint of <20 μL/min/10^6 cells in a human hepatocyte assay and/or <40 μL/min/10^6 cells in a rat hepatocyte assay.

[2] = CLint estimates using human liver microsomes; format: in vitro ADME; conditions: pH 7.4, read-out: HLM activity (HLM CLint)
Procedure: Method for the Determination of CLint Estimates Using Human Liver Microsomes
Test compounds (final concentration=1 μM; final DMSO concentration=0.1%) were incubated in 0.1M phosphate buffer pH 7.4 with human liver microsomes (0.5 mg of protein/mL) at 37° C. Reactions were started by addition of NADPH in 0.1M phosphate buffer pH 7.4 (final concentration 1 mM). 40 μL aliquots were removed at 2, 5, 10, 15, 20, 30, 40 and 50 min. Reactions were quenched in 80 μL of ice-cold methanol. Samples were subsequently frozen overnight then centrifuged at 3500 rpm for 20 min at 4° C. The supernatants were removed and transferred into analytical plates and analysed by LC/MS/MS.
All samples were analysed on a Waters Acquity I-Class coupled to a Waters Xevo TQD mass spectrometer. A Waters BEH C18 2.1×50 mm 1.7 μm column was used and mobile phases were water and methanol containing 0.1% formic acid as modifier. Analysis was by multiple reaction monitoring and conditions were optimised for each test compound.
From a plot of ln peak area against time, the gradient of the line is determined. Subsequently, half-life and intrinsic clearance are calculated using the following equations.

[3] = tested on: phospho-cdc2 (Tyr15) in HT-29 cells; experiment: Effect on phosphorylation of cdc2 at Tyr15 in HT-29 cells (PathScan ELISA); format: cell-based; conditions: Homo sapiens, HT-29, 8 h; HT29 cells, eight hours incubation; read-out: HT29 pCDC2 activity
Procedure: Method 2: Determining the effect of compounds on the phosphorylation of cdc2 at Tyr15
The colorectal cancer cell lines HT-29 and HCT-116 were purchased from the ATCC and routinely maintained in McCoy's Medium (Invitrogen) supplemented with 10% Foetal Calf Serum.
The cells were trypsinised from their growing vessel and counted, 100 μL of cell suspension containing 6000 cells was pipetted into black 96 well Co-star plates and incubated overnight to allow adherence to the surface at a temperature of 37° C. and an atmosphere of 5% CO2. Test compounds were formulated in DMSO and diluted in foetal calf serum supplemented medium. Incubating medium was removed by aspiration and diluted drug supplemented medium added to each well.
The plate was returned to the incubator for an additional eight hours at 37° C. and an atmosphere of 5% CO2. Post incubation, the drug supplemented medium was aspirated from each well and the cells were washed once in ice-cold phosphate buffered saline (PBS). 100 μL of cell lysis buffer (Cell Signalling Technologies #9803) containing 20 mM Tris, 150 mM NaCl, 1 mM EDTA, 1 mM EGTA, 1% Triton-X100, 2.5 mM sodium pyrophosphate, 1 mM glycerophosphate, 1 mM Na3VO4 and 1 μg/mL leupeptin was added to each well of the 96 well plate and incubated at 4° C. for 30 min. The samples on the plate were snap frozen at −80° C. until required.
Immediately before the continuation of the assay, the sample plate was thawed and centrifuged at 4° C. for 10 min and the supernatant transferred to secondary tubes or 96 well plate.
Cell supernatant was mixed in a ratio of 1:1 with sample dilutent buffer and vortexed for one minute. 100 μL of diluted sample was pipetted into pre-coated plates containing a rabbit polyclonal antibody for phospho-cdc2 (Tyr15) (Cell Signalling Technologies PathScan kit #7176). The plate was sealed and incubated overnight at 4° C.
The plate seal was removed and the well contents aspirated, followed by 3×5 min washes with 200 μL of diluted wash buffer. Between each wash the plate was tapped firmly onto blotting paper to ensure the removal of all kit solution. 100 μL of kit detection antibody was added to each well and the plate re-sealed and incubated at 37° C. for 1 h. Post incubation the plate was washed and processed in a similar manner to that previously described.
100 μL of horseradish peroxidise-linked secondary antibody was added to each test well, the plate sealed and incubated for thirty minutes at 37° C. Post incubation, the plate was washed as previously stated, followed by the addition of 100 μL of 3,3′,5,5′ tetramethylbenzidine (TMB reagent). The plate was sealed and incubated at RT for 30 min.
100 μL of stop solution was added to each well and the underside of the plate wiped with a lint-free tissue, prior to spectrophotometric determination. Absorbance from each well was read at 450 nm within 30 min of the addition of the stop solution.
The percentage of phospho-cdc2 was calculated compared to DMSO control and plotted versus the concentration of inhibitor using GraphPad Prism. Data was fitted using non-linear regression analysis and IC50 values generated.

[4] = biological target: Wee-1 kinase (Homo sapiens (Human), UniProt P30291); experiment: Measurement of Wee-1 kinase activity (ADP-Glo); format: biochemical; conditions: read-out: Wee-1 IC50 activity
Wee-1 kinase, sequence (P30291 whole entry): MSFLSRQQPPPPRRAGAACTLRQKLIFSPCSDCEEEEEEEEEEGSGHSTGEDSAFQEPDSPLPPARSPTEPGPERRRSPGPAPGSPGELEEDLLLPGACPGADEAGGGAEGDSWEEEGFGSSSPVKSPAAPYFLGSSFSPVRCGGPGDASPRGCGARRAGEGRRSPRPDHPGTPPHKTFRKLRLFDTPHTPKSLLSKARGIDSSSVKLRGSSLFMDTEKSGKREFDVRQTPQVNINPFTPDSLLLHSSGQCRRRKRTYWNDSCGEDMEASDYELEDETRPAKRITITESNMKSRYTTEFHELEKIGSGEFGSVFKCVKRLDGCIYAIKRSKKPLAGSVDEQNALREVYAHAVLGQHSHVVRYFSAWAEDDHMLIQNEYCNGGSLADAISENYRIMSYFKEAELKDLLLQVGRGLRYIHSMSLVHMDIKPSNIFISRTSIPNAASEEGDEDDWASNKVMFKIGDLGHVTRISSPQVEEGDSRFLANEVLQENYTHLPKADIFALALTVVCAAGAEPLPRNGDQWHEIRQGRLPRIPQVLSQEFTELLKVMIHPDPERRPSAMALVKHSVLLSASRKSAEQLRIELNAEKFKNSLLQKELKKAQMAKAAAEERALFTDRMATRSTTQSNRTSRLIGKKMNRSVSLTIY
Procedure: Method 1: Measurement of Wee-1 kinase activity
In the measurement of Wee-1 activity, a commercial peptide Poly(Lys Tyr(4:1)) hydrobromide was purchased from Sigma Aldrich and used as the substrate. Activated Wee-1 kinase was purchased from Invitrogen (PV3817) and an ADP-Glo luminescent kit was purchased from Promega.
All reactions took place in […] volumes in reaction buffer containing 40 mM Tris-HCl and 20 mM magnesium chloride, supplemented with 0.1 mg/mL bovine serum albumin and 2 mM DTT. Compounds were serially diluted in buffer and 5 μL of each concentration pipetted into a white 384 well plate (Sigma Aldrich M6186). A 5 μL aliquot of the Wee-1 enzyme was added to each well and the plate centrifuged for 1 min to ensure mixing of the enzyme and inhibitor.
The plate was incubated at room temperature for 30 minutes before the addition of 2.0 μg/mL of substrate and 30 μM ATP in a 5 μL aliquot. The plate was centrifuged for one minute and incubated for 1 h at RT.
15 μL of ADP-Glo stop reagent was added to each well to quench the reaction and deplete unconverted ATP. The plate was incubated for a further 40 min in the dark at RT.
30 μL of ADP-Glo kinase detection reagent was added to each well, converting ADP to ATP, catalysing the generation of luciferin by luciferase. The plate was shaken for 1 min, and incubated in the dark for an additional hour.
Luminescence from each well was detected using the Biotek Synergy4 HD plate reader and the percentage inhibition of kinase activity calculated for each inhibitor tested. Positive (kinase only) and negative (no kinase) controls were added to each plate to ensure specific interaction of kinase and inhibitor. The IC50 concentration for each inhibitor was calculated by plotting the percentage kinase inhibition against concentration of inhibitor and the curve generated by non-linear regression fitting.

[5] = Human hepatocyte assay CLint; format: in vitro ADME; conditions: hepatocytes
Procedure: as §1

[6] = biological target: human ether a go-go related gene (hERG) K+ channel (Homo sapiens (Human), UniProt Q12809); experiment: hERG inhibition, IonWorks patch clamp electrophysiology; format: cell-based; conditions: 8-point curve from 11 μM
human ether a go-go related gene (hERG) K+ channel, sequence (Q12809 whole entry): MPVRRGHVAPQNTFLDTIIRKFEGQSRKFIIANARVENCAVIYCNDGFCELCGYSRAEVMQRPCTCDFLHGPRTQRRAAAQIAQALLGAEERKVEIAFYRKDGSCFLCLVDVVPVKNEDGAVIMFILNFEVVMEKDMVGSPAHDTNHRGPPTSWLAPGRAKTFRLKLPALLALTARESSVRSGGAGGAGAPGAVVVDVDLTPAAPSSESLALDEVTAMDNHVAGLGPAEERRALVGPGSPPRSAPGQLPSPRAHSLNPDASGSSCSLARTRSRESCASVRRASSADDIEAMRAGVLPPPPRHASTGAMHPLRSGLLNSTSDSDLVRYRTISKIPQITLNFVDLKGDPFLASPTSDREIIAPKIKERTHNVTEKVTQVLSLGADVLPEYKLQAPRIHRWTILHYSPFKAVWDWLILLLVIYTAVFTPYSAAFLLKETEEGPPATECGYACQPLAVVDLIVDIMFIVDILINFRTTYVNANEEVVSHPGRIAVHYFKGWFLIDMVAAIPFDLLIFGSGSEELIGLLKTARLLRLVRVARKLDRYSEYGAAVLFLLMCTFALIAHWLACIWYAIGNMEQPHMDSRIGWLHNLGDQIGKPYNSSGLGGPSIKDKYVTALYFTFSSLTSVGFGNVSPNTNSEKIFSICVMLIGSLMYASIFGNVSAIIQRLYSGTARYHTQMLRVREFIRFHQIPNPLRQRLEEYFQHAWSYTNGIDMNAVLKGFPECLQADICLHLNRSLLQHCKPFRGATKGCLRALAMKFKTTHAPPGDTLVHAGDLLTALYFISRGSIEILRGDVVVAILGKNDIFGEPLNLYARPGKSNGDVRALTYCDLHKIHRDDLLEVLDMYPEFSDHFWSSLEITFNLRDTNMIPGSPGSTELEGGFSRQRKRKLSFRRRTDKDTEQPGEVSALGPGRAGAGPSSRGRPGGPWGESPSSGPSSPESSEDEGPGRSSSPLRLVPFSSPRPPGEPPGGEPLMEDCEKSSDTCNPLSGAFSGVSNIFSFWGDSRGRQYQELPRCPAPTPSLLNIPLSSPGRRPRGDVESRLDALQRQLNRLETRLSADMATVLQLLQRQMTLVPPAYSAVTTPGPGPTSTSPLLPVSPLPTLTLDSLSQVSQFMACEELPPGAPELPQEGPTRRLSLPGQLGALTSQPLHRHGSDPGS
Procedure: Compounds were tested for inhibition of the human ether a go-go related gene (hERG) K^+ channel using IonWorks patch clamp electrophysiology at Essen BioScience.

[7] = Oral bioavailability in rat; conditions: in vivo
Source text: Compounds of the present invention are orally bioavailable.

[8] = biological target: CYP2C9 (Homo sapiens (Human), UniProt P11712); experiment: Time dependent CYP inhibition: CYP2C9; format: in vitro ADME; conditions: 30 min pre incubation ±NADPH relative to direct inhibition IC50 with no pre-incubation
CYP2C9, sequence (P11712 whole entry): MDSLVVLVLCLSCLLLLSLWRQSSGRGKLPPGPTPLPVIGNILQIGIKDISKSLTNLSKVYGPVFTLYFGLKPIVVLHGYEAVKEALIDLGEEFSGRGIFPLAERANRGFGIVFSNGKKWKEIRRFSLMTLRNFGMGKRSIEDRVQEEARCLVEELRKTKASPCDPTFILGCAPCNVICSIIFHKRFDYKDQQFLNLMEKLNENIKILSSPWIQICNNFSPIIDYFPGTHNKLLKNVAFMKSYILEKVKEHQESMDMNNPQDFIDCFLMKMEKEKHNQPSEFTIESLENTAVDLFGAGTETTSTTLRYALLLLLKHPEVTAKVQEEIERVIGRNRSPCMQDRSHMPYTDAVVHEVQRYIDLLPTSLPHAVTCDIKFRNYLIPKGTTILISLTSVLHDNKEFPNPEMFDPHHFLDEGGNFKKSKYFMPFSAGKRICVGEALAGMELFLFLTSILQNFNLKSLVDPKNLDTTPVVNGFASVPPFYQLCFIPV
Source text: (§2) Compounds of the present invention have no time dependent CYP inhibition.

[9] = biological target: CYP2D6 (Homo sapiens (Human), UniProt P10635); experiment: Time dependent CYP inhibition: CYP2D6; format: in vitro ADME; conditions: 30 min pre incubation ±NADPH relative to direct inhibition IC50 with no pre-incubation
CYP2D6, sequence (P10635 whole entry): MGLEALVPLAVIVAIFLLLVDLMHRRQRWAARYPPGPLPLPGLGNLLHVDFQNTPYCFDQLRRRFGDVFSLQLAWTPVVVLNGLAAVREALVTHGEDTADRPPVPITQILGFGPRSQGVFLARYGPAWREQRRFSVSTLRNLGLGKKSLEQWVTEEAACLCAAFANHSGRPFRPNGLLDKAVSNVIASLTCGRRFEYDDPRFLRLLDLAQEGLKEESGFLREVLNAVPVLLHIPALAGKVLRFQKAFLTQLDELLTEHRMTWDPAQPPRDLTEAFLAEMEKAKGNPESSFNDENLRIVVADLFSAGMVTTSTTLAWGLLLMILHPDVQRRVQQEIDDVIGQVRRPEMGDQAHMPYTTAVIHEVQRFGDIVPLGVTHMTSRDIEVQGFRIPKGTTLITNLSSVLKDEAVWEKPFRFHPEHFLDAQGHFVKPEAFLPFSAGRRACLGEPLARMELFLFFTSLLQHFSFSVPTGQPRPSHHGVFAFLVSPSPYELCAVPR
Source text: as §2

[10] = biological target: CYP3A4 (Homo sapiens (Human), UniProt P08684); experiment: Time dependent CYP inhibition: CYP3A4; format: in vitro ADME; conditions: 30 min pre incubation ±NADPH relative to direct inhibition IC50 with no pre-incubation
CYP3A4, sequence (P08684 whole entry): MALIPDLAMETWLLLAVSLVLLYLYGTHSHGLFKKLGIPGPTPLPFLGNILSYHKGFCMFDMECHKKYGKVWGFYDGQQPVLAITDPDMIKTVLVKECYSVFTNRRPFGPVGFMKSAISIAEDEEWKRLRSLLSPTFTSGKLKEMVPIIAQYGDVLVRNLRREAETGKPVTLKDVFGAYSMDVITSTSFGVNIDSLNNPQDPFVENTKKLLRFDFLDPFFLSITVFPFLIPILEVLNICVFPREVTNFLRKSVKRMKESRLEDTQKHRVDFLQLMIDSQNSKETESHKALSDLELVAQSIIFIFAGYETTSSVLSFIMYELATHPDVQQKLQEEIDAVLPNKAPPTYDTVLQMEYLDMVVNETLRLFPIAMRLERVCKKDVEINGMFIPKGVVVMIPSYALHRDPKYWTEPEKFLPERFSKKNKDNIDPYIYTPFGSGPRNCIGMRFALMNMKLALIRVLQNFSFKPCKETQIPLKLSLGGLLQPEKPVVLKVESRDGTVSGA
Source text: as §2

[11] = biological target: CYP2C19 (Homo sapiens (Human), UniProt P33261); experiment: Time dependent CYP inhibition: CYP2C19; format: in vitro ADME; conditions: 30 min pre incubation ±NADPH relative to direct inhibition IC50 with no pre-incubation
CYP2C19, sequence (P33261 whole entry): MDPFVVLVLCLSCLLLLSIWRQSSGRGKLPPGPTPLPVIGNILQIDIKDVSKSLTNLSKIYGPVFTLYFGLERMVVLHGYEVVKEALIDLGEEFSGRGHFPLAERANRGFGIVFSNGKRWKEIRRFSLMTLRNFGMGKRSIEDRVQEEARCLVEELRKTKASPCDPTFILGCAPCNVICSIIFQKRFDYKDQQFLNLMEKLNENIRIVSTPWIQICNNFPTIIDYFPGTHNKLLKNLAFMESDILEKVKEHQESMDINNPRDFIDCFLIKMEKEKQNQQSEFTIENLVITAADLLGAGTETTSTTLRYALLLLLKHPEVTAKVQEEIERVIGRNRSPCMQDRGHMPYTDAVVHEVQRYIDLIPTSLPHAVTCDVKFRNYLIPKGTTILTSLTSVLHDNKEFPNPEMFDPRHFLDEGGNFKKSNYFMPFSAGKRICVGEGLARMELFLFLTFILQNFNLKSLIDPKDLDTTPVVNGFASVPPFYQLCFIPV
Source text: as §2

Row | hepatocyte CLint [1] [µL/min/1e6 cells] | microsomal CLint at 1 μM [2] [µL/min/mg] | IC50 [3] [nM] | IC50 [4] [nM] | hepatocyte CLint [5] [µL/min/1e6 cells] | bioavailability [7] [%] | time dependent inhibition of CYP2C9: shift in IC50 [8] [fold] | time dependent inhibition of CYP2D6: shift in IC50 [9] [fold] | time dependent inhibition of CYP3A4: shift in IC50 [10] [fold] | time dependent inhibition of CYP2C19: shift in IC50 [11] [fold] | SMILES | IC50 [6] [nM]
1 | < 40 | ≤ 20 | ≤ 100 | < 10 | < 20 | – | – | – | – | – | O=c1c2cnc(Nc3ccc(N4CCNCC4)c(CO)c3)nc2ccn1-c1c(Cl)cccc1Cl [Example 18, 6-(2,6-Dichlorophenyl)-2-((3-(hydroxymethyl)-4-(piperazin-1-yl)phenyl)amino)pyrido[4,3-d]pyrimidin-5(6H)-one] | ≥ 10000
2 | < 40 | ≤ 20 | ≤ 100 | < 10 | < 20 | > 25 | – | – | – | – | Cc1cc(Nc2ncc3c(=O)n(-c4c(Cl)cccc4Cl)ccc3n2)ccc1N1CCNCC1 [Example 7, 6-(2,6-Dichlorophenyl)-2-((3-methyl-4-(piperazin-1-yl)phenyl)amino)pyrido[4,3-d]pyrimidin-5(6H)-one] | 1000 to 10000
3 | < 40 | ≤ 20 | ≤ 100 | < 10 | < 20 | > 25 | < 2 | < 2 | < 2 | < 2 | COc1cc(Nc2ncc3c(=O)n(-c4c(Cl)cccc4Cl)ccc3n2)ccc1N1CCNCC1 [Example 13, 6-(2,6-Dichlorophenyl)-2-((3-methoxy-4-(piperazin-1-yl)phenyl)amino)pyrido[4,3-d]pyrimidin-5(6H)-one, HCl] | ≥ 10000
4 | < 40 | ≤ 20 | ≤ 100 | < 10 | < 20 | > 25 | < 2 | < 2 | < 2 | < 2 | CNCc1cc(Nc2ncc3c(=O)n(-c4c(Cl)cccc4Cl)ccc3n2)ccc1N1CCOCC1 [Example 20, 6-(2,6-Dichlorophenyl)-2-((3-((methylamino)methyl)-4-morpholinophenyl)amino)pyrido[4,3-d]pyrimidin-5(6H)-one] | ≥ 10000
